Patent publication US5177240A, “o-Phosphono(alkyl)-N-sulfonyl-phenyl-alanine derivatives useful as intermediates for preparation of phosphono-hydroisoquinolines” (G. D. Searle & Co., priority 1990, dated 1993)

Experiments:
NMDA receptor = NMDA receptor binding assay (NMDA-specific L-[3H]-glutamate binding, synaptic plasma membranes); details: 12.5 nM L-[3H]-glutamate, pH 7.4, 0-4° C., 10 min
Description: Synaptic plasma membranes (SPM) were prepared as previously described Monahan, J. B. and Michel, J., "Identification and Characterization of an N-methyl-D-aspartate-specific L-[^3 H]-glutamate Recognition Site in Synaptic Plasma Membranes, J. Neurochem., 48, 1699-1708 (1987)]. The SPM were stored at a concentration of 10-15 mg/ml in 0.32M sucrose, 0.5 mM EDTA, 1 mM MgSO4, 5 mM Tris/sulfate, pH 7.4, under liquid nitrogen. The identity and purity of the subcellular fractions were confirmed by both electron microscopy and marker enzymes. Protein concentrations were determined by using a modification of the method of Lowry [Ohnishi, S. T. and Barr, J. K., "A Simplified Method of Quantitating Proteins Using the Biuret and Phenol Reagents", Anal. Biochem., 86, 193-197 (1978)]. The SPM were treated identically for the [^3 H]AMPA (QUIS), [^3 H]kainate and sodium-dependent L-[^3 H]-glumatate binding assays. The SPM were thawed at room temperature, diluted twenty-fold with 50 mM Tris/acetate, pH 7.4, incubated at 37° C. for 30 minutes, and centrifuged at 100,000 g for 15 minutes. The dilution, incubation and centrifugation were repeated a total of three times. Prior to use in the NMDA-specific L-[^3 H]-glutamate binding assay, the SPM were thawed, diluted twenty fold with 50 mM Tris/acetate (pH 7.4 containing 0.04% (v/v) Triton X-100), incubated for 30 minutes at 37° C. and centrifuged as described above. The Triton X-100 treated membranes were washed with 50 mM Tris/acetate (pH 7.4) and centrifuged at 100,000 g for 15 minutes a total of four times. The basic procedure for the receptor subclass binding assays was similar. This general method involved adding the radioligand (12.5 nM L-[^3 H]-glutamate; 0.5 nM [^3 H]kainate or 10nM [^3 H]AMPA) to the appropriate concentration of the test compound and initiating the assay by the addition of ice cold synaptic plasma membranes (0.2-0.45 mg). The binding assays were performed in 1.5 mL centrifuge tubes with the total volume adjusted to 1.0 mL. Additions of test compounds were made in 50 mM Tris/acetate (pH 7.4) and incubations were carried out at 0°-4° C. The incubation time for each of the NMDA and the AMPA binding assays was 10 minutes, for the kainate binding assay 60 minutes and for the sodium-dependent glutamate binding assay 15 minutes. The AMPA binding assay contained 100 mM KSCN and the sodium-dependent glutamate binding assay contained 150 mM sodium acetate in addition to the previously described reagents. To terminate the incubation, the samples were centrifuged for 15 minutes at 12,000 g and 4° C. in a Beckman Microfuge 12. The supernatant was aspirated and the pelleted membranes dissolved in Beckman BTS-450 tissue solubilizer for a minimum of 6 hours at room temperature. Beckman MP scintillation cocktail containing 7 mL/L acetic acid was then added and the samples counted on a Beckman LS 5800 or 3801 liquid scintillation counter with automatic corrections for quenching and counting efficiency. Nonspecific binding was defined as the residual binding in the presence of either excess L-glutamate (0.1-0.4 mM), kainate (0.01 mM), or NMDA (0.5 mM), and was 15-25% of the total binding in the NMDA binding assay, 19-27% in the AMPA binding assay, 20-30% in the kainate binding assay and 10-15% in the sodium-dependent binding assay. Radioligand binding to the synaptic plasma membranes was analyzed using Scatchard and Hill transformations and the Ki values of the compounds determined using logit-log transformations. Calculations and regression analysis were performed using templates developed for Lotus 1, 2, 3 as previously described [Pullan, L. M. "Automated Radioligand Receptor Binding Analysis with Templates for Lotus", Computer Appln. Biosci., 3 131 (1987)]. Binding results are reported in Table II for example compounds of the invention. Included in Table II are binding data for D,L-AP7[D,L-2-amino-7-phosphonoheptanoic acid].

[1] = molecular target: Quis (quisqualate) receptor; test: Quisqualate (QUIS) receptor binding assay ([3H]AMPA, synaptic plasma membranes); details: 10 nM [3H]AMPA, 100 mM KSCN, pH 7.4, 0-4° C., 10 min; read-out: NMDA receptor binding Ki, Quis
Description: (§1) Synaptic plasma membranes (SPM) were prepared as previously described Monahan, J. B. and Michel, J., "Identification and Characterization of an N-methyl-D-aspartate-specific L-[^3 H]-glutamate Recognition Site in Synaptic Plasma Membranes, J. Neurochem., 48, 1699-1708 (1987)]. The SPM were stored at a concentration of 10-15 mg/ml in 0.32M sucrose, 0.5 mM EDTA, 1 mM MgSO4, 5 mM Tris/sulfate, pH 7.4, under liquid nitrogen. The identity and purity of the subcellular fractions were confirmed by both electron microscopy and marker enzymes. Protein concentrations were determined by using a modification of the method of Lowry [Ohnishi, S. T. and Barr, J. K., "A Simplified Method of Quantitating Proteins Using the Biuret and Phenol Reagents", Anal. Biochem., 86, 193-197 (1978)]. The SPM were treated identically for the [^3 H]AMPA (QUIS), [^3 H]kainate and sodium-dependent L-[^3 H]-glumatate binding assays. The SPM were thawed at room temperature, diluted twenty-fold with 50 mM Tris/acetate, pH 7.4, incubated at 37° C. for 30 minutes, and centrifuged at 100,000 g for 15 minutes. The dilution, incubation and centrifugation were repeated a total of three times. Prior to use in the NMDA-specific L-[^3 H]-glutamate binding assay, the SPM were thawed, diluted twenty fold with 50 mM Tris/acetate (pH 7.4 containing 0.04% (v/v) Triton X-100), incubated for 30 minutes at 37° C. and centrifuged as described above. The Triton X-100 treated membranes were washed with 50 mM Tris/acetate (pH 7.4) and centrifuged at 100,000 g for 15 minutes a total of four times. The basic procedure for the receptor subclass binding assays was similar. […] Beckman MP scintillation cocktail containing 7 mL/L acetic acid was then added and the samples counted on a Beckman LS 5800 or 3801 liquid scintillation counter with automatic corrections for quenching and counting efficiency. […] Radioligand binding to the synaptic plasma membranes was analyzed using Scatchard and Hill transformations and the Ki values of the compounds determined using logit-log transformations. […]

[3H]MK-801 receptor = MK-801 Modulation Assay ([3H]MK-801 binding, synaptic plasma membranes from rat forebrain); details: 2.0 nM [3H]MK-801, pH 7.4, 120 min, 25° C.; decrease in specific basal binding; read-out: IC50, inhibition of [3H]MK-801 binding
Description: [^3 H]MK-801 binding was performed using Triton X-100 washed synaptic plasma membranes (SPM) prepared from rat forebrain (30-45 day old, male Sprague-Dawley; Sasco, St. Charles, MO) as described previously [J. W. Thomas, W. F. Hood, J. B. Monahan, P. C. Contreras and T. L. O'Donohue, Brain Res., 442, 396-398 (1988)]. The assay was initiated by the addition of SPM (0.20-0.30 mg) to an incubation containing 2.0 nM [^3 H]MK-801 (15 Ci/mmole; New England Nuclear, Boston, MA) and various concentrations of the appropriate test compound in a total volume of 0.5 ml (all additions were made in 50mM Tris/acetate buffer, pH 7.4) and continued for 120 min at 25° C. The samples were then filtered through glass fiber filters (Schleicher and Schuell #32) which were pretreated with 0.05% (v/v) polyethylenimine. The filters were washed and the radioactivity quantitated by liquid scintillation spectrometry. Inhibition of [^3 H]MK-801 binding was measured as a decrease in specific basal binding (basal binding=2583 ±381 DPM) with nonspecific binding as the residual binding in the presence of 60 μM MK-801 (562 ±30 DPM).

KA (kainate) receptor = test: Kainate (KA) receptor binding assay ([3H]kainate, synaptic plasma membranes); details: 0.5 nM [3H]kainate, pH 7.4, 0-4° C., 60 min
Description: as §1, with “assays.” for “assays. The SPM were thawed at room temperature, diluted twenty-fold with 50 mM Tris/acetate, pH 7.4, incubated at 37° C. for 30 minutes, and centrifuged at 100,000 g for 15 minutes. The dilution, incubation and centrifugation were repeated a total of three times. Prior to use in the NMDA-specific L-[^3 H]-glutamate binding assay, the SPM were thawed, diluted twenty fold with 50 mM Tris/acetate (pH 7.4 containing 0.04% (v/v) Triton X-100), incubated for 30 minutes at 37° C. and centrifuged as described above. The Triton X-100 treated membranes were washed with 50 mM Tris/acetate (pH 7.4) and centrifuged at 100,000 g for 15 minutes a total of four times. The basic procedure for the receptor subclass binding assays was similar.”

[3H]glycine binding = Glycine Binding Assay ([3H]glycine, synaptic plasma membranes from rat forebrain); details: 10 nM [3H]glycine, pH 7.4
Description: Synaptic plasma membranes (SPM) were prepared from rat forebrain and stored as previously described [J. B. Monahan and J. Michel, J. Neurochem., 48, 1699-1708 (1987)]. Frozen membranes were thawed and diluted 1:20 with 0.04% Triton X-100 in 50 mM Tris/acetate (pH 7.4). Following incubation at 37° C. for 30 min., the SPM were collected by centrifugation at 95,000×g for 15 min. The pellet was resuspended in 50 mM Tris/acetate (pH 7.4, Triton-free) and hand-homogenized five times. The membranes were again centrifuged as above. The pellet was washed two additional times with 50 mM Tris/acetate (without homogenization) and centrifuged. The final pellet was resuspended with homogenization in 50 mM Tris/acetate. In the general receptor binding assay procedure, 10 nM [^3 H]glycine was added to the appropriate concentration of the test compounds and the assay initiated by the addition of 0.2-0.4 mg of ice cold SPM. […] Beckman MP scintillation cocktail (5 ml) containing 7 ml/liter acetic acid was then added and the samples counted on a Beckman LS 5800 liquid scintillation counter with automatic corrections for quenching and counting efficiency. […] The binding of [^3 H]glycine to the SPM was analyzed using Scatchard and Hill transformations and the Ki for other compounds was determined using logit-log analysis. […]

[2] = test system: TCP (1-[1-(2-thienyl)-cyclohexyl]piperidine) binding; test: TCP Modulation Assay ([3H]TCP binding, rat brain synaptic membranes); details: 2 nM tritiated TCP, 0.05 mM L-glutamate, pH 7.4, 25° C., 60 min
Description: The effect on the TCP (1-[1-(2-thienyl)-cyclohexyl]piperidine) binding was measured in rat brain synaptic membranes (SPM) prepared as previously described [J. B. Monahan & J. Michel; J. Neurochem. 48:1699-1708 (1987)]. Prior to their use in the binding assay, frozen SPM were thawed, diluted twenty fold with 50 mM Tris/acetate (pH 7.4 containing 0.04% (v/v) Triton X-100), incubated for 30 min. at 37° C. and centrifuged at 95,000×g for 15 min. The Triton X-100 treated SPM were washed with 5 mM Tris/HCl, pH 7.4 and centrifuged a total of six times. The compound of Example II was incubated at different concentrations with SPM (0.2-0.4 mg protein) and 2 nM tritiated TCP, in a total volume of 0.5 ml of 5 mM Tris/HCl buffer pH 7.4 at 25° C. for 60 min. The samples were filtered through glass fiber filters (Schleicher & Schuell #32) which have been pretreated with 0.05% (v/v) polyethylenimine, washed 4 times with 2 ml of ice-cold 5 mM Tris/HCl buffer, and then counted on a Beckman LS 5800 liquid scintillation counter with automatic corrections for quenching and counting efficiency. Inhibition of TCP binding was measured as a decrease in the binding in the presence of 0.05 mM L-glutamate. Non-specific binding was defined as the residual binding in the presence of 60 […].

Row | Structure (SMILES) | Ki (NMDA receptor) [µM] | other results
1 | NC(CCCCCP(=O)(O)O)C(=O)O (racemic) [D,L-AP7, D,L-2-amino-7-phosphonoheptanoic acid] | 5.4 | Ki [1]: > 300 µM
2 | O=C(O)C1Cc2c(cccc2P(=O)(O)O)CN1 (single isomer, unassigned) [Ex. 14] | 3.1 | 
3 | O=C(O)C1Cc2c(cccc2P(=O)(O)O)CN1 (single isomer, unassigned; (+)) [Ex. 13, (+)-3-carboxy-5-phosphono-1,2,3,4-tetrahydroisoquinoline] | 0.9 | 
4 | N[C@H](CCCCCP(=O)(O)O)C(=O)O [D-AP7] | 4 | Ki [1]: > 300 µM
5 | Cl.O=C(O)C1Cc2c(cccc2P(=O)(O)O)CN1 (centres unmarked) [Ex. 2, 3-carboxy-5-phosphono-1,2,3,4-tetrahydroisoquinoline hydrochloride] | 1.6 | IC50 ([3H]MK-801 receptor): 0.48 µM; Kainate receptor binding Ki (KA (kainate) receptor): ~ 300 μM; maximum inhibition of [3H]-glycine binding ([3H]glycine binding): approximately 40%; IC20 ([3H]glycine binding; calculated, based on maximum inhibition of approximately 40%): 1.9 µM; inhibition of TCP binding ([2]; at 5 μM): 64%; inhibition of TCP binding ([2]; at 50 μM): 91%; Ki [1]: > 300 µM
6 | O=C(O)C1CC2=C(CC=CC2P(=O)(O)O)CN1 (centres unmarked) [Ex. 3, 3-carboxy-5-phosphono-1,2,3,4,5,8-hexahydroisoquinoline] | 3 | 
7 | O=C(O)C1CC2=C(CCCC2P(=O)(O)O)CN1 (centres unmarked) [Ex. 4, 3-carboxy-5-phosphono-1,2,3,4,5,6,7,8-octahydroisoquinoline] | 1.2 | 
8 | O=C(O)C1CC2C(CCCC2P(=O)(O)O)CN1 (centres unmarked) [Ex. 5] | 1.6 | IC50 ([3H]MK-801 receptor): 1.38 µM
9 | O=C(O)C1CC2C(CCCC2P(=O)(O)O)CN1 (centres unmarked) [Ex. 6] | 11.2 | 
10 | O=C(O)C1CC2C(CCCC2P(=O)(O)O)CN1 (centres unmarked) [Ex. 7] | 1.3 | 
11 | CCOC(=O)C1Cc2c(cccc2P(=O)(O)O)CN1 (centres unmarked) [Ex. 15, 5-phosphono-3-(ethoxycarbonyl)-1,2,3,4-tetrahydroisoquinoline] | > 100 | 
12 | Cc1ccc2c(c1P(=O)(O)O)CC(C(=O)O)NC2 (centres unmarked) [Ex. 16] | 5.9 | 
13 | O=C(O)C1Cc2c(cccc2CP(=O)(O)O)CN1 (centres unmarked) [Ex. 17, 3-carboxy-5-(phosphonomethyl)-1,2,3,4-tetrahydroisoquinoline] | 18 | 
